Counter-ions that a name gives are not always drawn.
Target: MASP-2 CCP2-SP (Homo sapiens (Human), UniProt O00187)
Experiment: MASP-2 co-crystallization, X-ray crystallography and structure analysis (H-bonds, van der Waals contacts);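 for Ligand-pharmacophore element distance, pharmacophore element C2: distance from averaged pharmacophore element to bound ligand; missing value means element absent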;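 for Ligand-pharmacophore element distance, pharmacophore element C3: distance from averaged pharmacophore element to bound ligand; missing value means element absent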;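 for Ligand-pharmacophore element distance, pharmacophore element C4: distance from averaged pharmacophore element to bound ligand; missing value means element absent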;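 for Ligand-pharmacophore element distance, pharmacophore element C5: distance from averaged pharmacophore element to bound ligand; missing value means element absent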
Set-up: van der Waals contact distance, MASP-2 HIS 483 atom CD2 / van der Waals contact distance, MASP-2 HIS 483 atom NE2 / van der Waals contact distance, SER 654 C to compound atom / van der Waals contact distance, SER 654 O to compound atom / van der Waals contact distance, TRP 655 C to compound atom / van der Waals contact distance, MASP-2 GLY 528 atom CA / van der Waals contact distance TRP 655 atom CZ3 / van der Waals contact distance TRP 655 atom N / van der Waals contact distance TRP 655 atom CE3 / van der Waals contact distance GLY 656 atom C / van der Waals contact distance GLY 656 atom CA / van der Waals contact distance GLY 656 atom O / van der Waals contact distance, MASP-2 TYR 607 atom CD1 / van der Waals contact distance, MASP-2 PRO 606 atom O / d(C3,CA1) / d(CA1,N1)2 / d(H4,O1) / d(H4,O2) / d(O1,O2) / d(CA1,O2) / d(CA6,O1) / d(CA6,O2) / d(CA1,C5) / d(O2,H3) / d(N2,C2) / d(CA5,N2) / d(N2,C4) / d(N2,C6) / d(N2,CA3) / d(N2,O3) / d(O4,H2): unit not given beside the values
Settings: for Ligand-pharmacophore element distance, pharmacophore element C2 / Ligand-pharmacophore element distance, pharmacophore element C3 / Ligand-pharmacophore element distance, pharmacophore element C4 / Ligand-pharmacophore element distance, pharmacophore element C5 / Ligand-pharmacophore element distance, pharmacophore element C6 / Ligand-pharmacophore element distance, pharmacophore element C7 / Ligand-pharmacophore element distance, pharmacophore element CA1 / Ligand-pharmacophore element distance, pharmacophore element CA2 / Ligand-pharmacophore element distance, pharmacophore element CA3 / Ligand-pharmacophore element distance, pharmacophore element CA4 / Ligand-pharmacophore element distance, pharmacophore element CA5 / Ligand-pharmacophore element distance, pharmacophore element CA6: Table A4-1
Summary of the method: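 Contacts and H-bonds come from partially refined soaked-crystal structures of recombinant human CCP2-SP made in E. coli, solved by molecular replacement against 1Q3X fragments. Where several ligand poses appeared, only one was analysed; listed nonbonded contacts may include possible H-bond pairings.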

[1] = Table A5-1 pharmacophore: distance between elements, S2/S1 region
[2] = Table A5-2 pharmacophore distance, S3/S4 region
[3] = Table A7-1, between pharmacophore elements of the bound compound
[4] = Table A7-2, between pharmacophore elements of the bound compound
[5] = Table A8-6, nearest protein atom in cell to the left

Sequence of MASP-2 CCP2-SP (O00187 445-686): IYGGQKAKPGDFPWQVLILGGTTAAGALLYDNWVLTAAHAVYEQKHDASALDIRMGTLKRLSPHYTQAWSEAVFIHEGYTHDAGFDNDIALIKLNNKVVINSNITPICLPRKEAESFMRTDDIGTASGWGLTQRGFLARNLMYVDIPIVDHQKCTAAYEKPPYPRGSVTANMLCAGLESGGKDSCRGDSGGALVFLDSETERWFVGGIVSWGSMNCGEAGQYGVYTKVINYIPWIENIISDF
Sequence of MASP-2 CCP2-SP (O00187 364-432 partner): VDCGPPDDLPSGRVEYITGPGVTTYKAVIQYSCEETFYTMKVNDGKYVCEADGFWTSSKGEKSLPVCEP

With `C[C@H](NC(=O)[C@H]1Cc2c([nH]c3ccccc23)CN1)C(=O)NCc1ccc(C(=N)N)cc1.Cl.Cl` [1097_2] the “Ligand-pharmacophore element distance, pharmacophore element C2” value was 0.72, the “Ligand-pharmacophore element distance, pharmacophore element C3” value was 0 and the “Ligand-pharmacophore element distance, pharmacophore element C4” value was 0. For the same compound, the “Ligand-pharmacophore element distance, pharmacophore element C5” value was 0, the “Ligand-pharmacophore element distance, pharmacophore element C6” value was 0 and the “Ligand-pharmacophore element distance, pharmacophore element C7” value was 0. The “Ligand-pharmacophore element distance, pharmacophore element CA1” value was 0.32, the “Ligand-pharmacophore element distance, pharmacophore element CA2” value was 0 and the “Ligand-pharmacophore element distance, pharmacophore element CA3” value was 0. The “Ligand-pharmacophore element distance, pharmacophore element CA4” value was 0, the “Ligand-pharmacophore element distance, pharmacophore element CA5” value was 1.1 and the “Ligand-pharmacophore element distance, pharmacophore element CA6” value was 0. The “d(CA1,N1)” value [1] was 3.52, the “d(CA1,O1)” value [1] was 4.35 and the “d(CA1,O2)” value [1] was 4.09. For the same compound, the “d(H4,O1)” value [1] was 4.74, the “d(H4,O2)” value [1] was 4.28 and the “d(O1,O2)” value [1] was 3.33. The “d(CA5,N2)” value [2] was 4.50, the “d(N2,C2)” value [2] was 1.42 and the “d(O2,H3)” value [2] was 4.29. For the same compound, the “d(O2,N2)” value [2] was 2.81, the “a(CA1, O1, O2)” value (Table A6-1 pharmacophore angle) was 109.11 and the “a(O1, O2, H4)” value (Table A6-1 pharmacophore angle) was 137.06. The “A(N1, CA1, O1) a)” value (Table A6-1 pharmacophore angle, all compounds with protonatable center N1 except Methyl-amino-pyridine) was 163.92, the “a(O1, O2, H3)” value (Table A6-2 pharmacophore angle) was 153.30 and the “a(O1, O2, N2)” value (Table A6-2 pharmacophore angle) was 137.12. The “a(O2, N2, C2)” value (Table A6-2 pharmacophore angle) was 128.45, the “Pharmacophore torsion angle a(H4, O1, O2, H3)” value [3] was 91.00 and the “Pharmacophore torsion angle a(H4, O1, O2, N2)” value [3] was 129.42. For the same compound, the “Pharmacophore torsion angle a(N1, CA1, O2, H4)” value [3] was −142.69, the “Pharmacophore torsion angle a(O1, H4, O2, CA1)” value [3] was −71.28 and the “Pharmacophore torsion angle a(O1, O2, N2, C2)” value [3] was 125.27. The “Pharmacophore torsion angle a(O1, O2, N2, CA5)” value [4] was 137.08, the “Pharmacophore protein distance to MET_658 (first MET_658 column)” value (Table A8-6, 6th residue column, nearest protein atom in cell to the left) was 2.55 and the “Pharmacophore protein distance to MET_658 (second MET_658 column)” value (Table A8-6, 9th residue column, nearest protein atom in cell to the left) was 3.13. For the same compound, the “Pharmacophore protein distance to GLY_528” value [5] was 3.52, the “Pharmacophore protein distance to PHE_529” value [5] was 3.02 and the “Pharmacophore protein distance to PRO_608” value [5] was 3.56. For the same compound, the “Pharmacophore protein distance to SER_611” value [5] was 3.29 and the “Pharmacophore protein distance to TRP_655” value (Table A8-6, pharmacophore elements C6, CA3, O3, H1, nearest protein atom in cell to the left) was 3.09.

With `Cc1nc(N)ccc1CNC(=O)[C@H](C)NC(=O)[C@H]1C[C@H](Cc2cc(-c3ccccc3)cs2)CN1` [compound 1399, (2R,4R)—N—((S)-1-(((6-Amino-2-methylpyridin-3-yl)methyl)amino)-1-oxopropan-2-yl)-4-((4-phenylthiophen-2-yl)methyl)pyrrolidine-2-carboxamide Dihydrochloride] the “H-bond distance to MASP-2 ASP 627 atom OD2” value (Table A1 (H-Bonds), ASP 627 OD2) was 3.26, the “H-bond distance to MASP-2 GLY 656 atom N” value (Table A1 (H-Bonds), GLY 656 N) was 3.21 and the “H-bond distance to MASP-2 GLY 656 atom O” value (Table A1 (H-Bonds), GLY 656 O) was 2.75. The “H-bond distance to MASP-2 SER 628 atom O” value (Table A1 (H-Bonds), SER 628 O) was 3.15, the “H-bond distance to MASP-2 SER 654 atom O” value (Table A1 (H-Bonds), SER 654 O) was 3.04 and the “H-bond distance to MASP-2 SER 657 atom O” value (Table A1 (H-Bonds), SER 657 O) was 2.86. For the same compound, the “van der Waals contact distance, MASP-2 amino acid atom to compound atom” value (Table A2) was 3.7, the “van der Waals contact distance, MASP-2 HIS 483 atom CD2” value (Table A2-1) was 3.72 and the “van der Waals contact distance, MASP-2 HIS 483 atom NE2” value (Table A2-1) was 3.6. The “van der Waals contact distance, MASP-2 PHE 529 atom CD2” value (Table A2-3) was 3.85, the “van der Waals contact distance, MASP-2 PHE 529 atom CE2” value (Table A2-3) was 3.7 and the “van der Waals contact distance, MASP-2 amino acid atom to compound atom” value (Table A2-7: SER 628 (CB, O, OG)) was 3.61. The “van der Waals contact distance, VAL 653 CG1 to compound atom” value (Table A2-11) was 3.32, the “van der Waals contact distance, TRP 655 CA to compound atom” value (Table A2-12) was 3.43 and the “van der Waals contact distance TRP 655 atom CZ3” value (Table A2-13, MASP-2 TRP 655 CZ3) was 3.42. For the same compound, the “van der Waals contact distance, MASP-2 amino acid atom to compound atom” value (Table A2 section before Table A2-8) was 3.81, the “Ligand-pharmacophore element distance, pharmacophore element C2” value was 0 and the “Ligand-pharmacophore element distance, pharmacophore element C3” value was 0.14. For the same compound, the “Ligand-pharmacophore element distance, pharmacophore element C4” value was 0, the “Ligand-pharmacophore element distance, pharmacophore element C5” value was 0 and the “Ligand-pharmacophore element distance, pharmacophore element C6” value was 0. For the same compound, the “Ligand-pharmacophore element distance, pharmacophore element C7” value was 0, the “Ligand-pharmacophore element distance, pharmacophore element CA1” value was 0.59 and the “Ligand-pharmacophore element distance, pharmacophore element CA2” value was 0.85. For the same compound, the “Ligand-pharmacophore element distance, pharmacophore element CA3” value was 0, the “Ligand-pharmacophore element distance, pharmacophore element CA4” value was 2.39 and the “Ligand-pharmacophore element distance, pharmacophore element CA5” value was 0. The “Ligand-pharmacophore element distance, pharmacophore element CA6” value was 0, the “d(C3,CA1)” value [1] was 2.86 and the “d(CA1,N1)2” value [1] was 1.38. The “d(CA1,O1)” value [1] was 4.40, the “d(CA1,O2)” value [1] was 3.92 and the “d(H4,O1)” value [1] was 4.40. For the same compound, the “d(H4,O2)” value [1] was 3.82, the “d(O1,O2)” value [1] was 3.33 and the “d(N2,CA2)” value [2] was 5.96. For the same compound, the “d(O2,H3)” value [2] was 4.09, the “d(O2,N2)” value [2] was 2.67 and the “a(C3, CA1, O1)” value (Table A6-1 pharmacophore angle) was 149.86. For the same compound, the “a(CA1, O1, O2)” value (Table A6-1 pharmacophore angle) was 105.80, the “a(O1, O2, H4)” value (Table A6-1 pharmacophore angle) was 132.84 and the “a(N1, CA1, O1) b)” value (Table A6-1 pharmacophore angle, Methyl-amino-pyridine compounds) was 173.87. For the same compound, the “a(O1, O2, H3)” value (Table A6-2 pharmacophore angle) was 145.77, the “a(O1, O2, N2)” value (Table A6-2 pharmacophore angle) was 143.45 and the “a(O2, N2, CA2)” value (Table A6-2 pharmacophore angle) was 157.06. For the same compound, the “Pharmacophore torsion angle a(C3, CA1, O1, H4)” value [3] was 24.20, the “Pharmacophore torsion angle a(H4, O1, O2, H3)” value [3] was 50.25 and the “Pharmacophore torsion angle a(H4, O1, O2, N2)” value [3] was 142.63. For the same compound, the “Pharmacophore torsion angle a(N1, CA1, O1, H4)” value [3] was 0.87, the “Pharmacophore torsion angle a(O1, H4, O2, CA1)” value [3] was −83.35 and the “Pharmacophore torsion angle a(O1, O2, N2, CA2)” value [4] was 126.87. For the same compound, the “Pharmacophore torsion angle a(O1, O2, N2, CA4)” value [4] was 113.10.

From US12195427B2, “MASP-2 inhibitors and methods of use” (priority 2018, dated 2025)
